Results as given in patent publication US9169199B2, “Cycloalkyl guanidine F1F0-ATPase inhibitors and therapeutic uses thereof” (Lycera Corporation, priority 2010, dated 2015).

Experiments:
[1] = biological target: T1, F1F0-ATPase (Bos taurus, UniProt P13621); assay: Inhibition of ATP synthesis by the F1F0-ATPase; format: biochemical
T1 construct: from tissue
Method: (§1) Compounds in Example 4 above were tested for activity against F1F0-ATPase by measuring ATP synthesis. In addition, the compounds were assessed for cytotoxicity in Ramos cells. Inhibition of ATP synthesis by the F1F0-ATPase and cytotoxicity in Ramos cells were measured according to the procedures described in K. M. Johnson et al. Chemistry & Biology 2005, 12, 485-496.

[2] = test system: Ramos cells; assay: Cytotoxicity in Ramos cells; format: cell-based; settings: Homo sapiens, read-out: Ramos cell EC50
Method: as §1

IC50 [1] [µM] | SMILES | EC50 [2] [µM]
< 10 | O=C(/N=C(\Nc1cccc(C(F)(F)F)c1)N[C@H]1CC[C@H](O)CC1)c1ccc(C(F)(F)F)cc1 [Compound 2] | < 10
< 10 | O=C(/N=C(/Nc1cccc(Cl)c1F)N[C@H]1CC[C@H](Nc2ncccn2)CC1)c1ccc(F)c(F)c1 [Compound 84] | > 10
< 10 | COc1cccc(C(=O)/N=C(/Nc2cc(F)cc(Cl)c2)NC2CCC(NC(=O)c3ccccc3)CC2)c1 (centres unmarked) [Compound 157] | < 10
> 10 | O=C(/N=C(/NCc1ccc(F)c(F)c1)N[C@H]1CC[C@H](O)CC1)c1ccc(F)c(F)c1 [Compound 39] | < 10
< 10 | O=C(/N=C(/NC1CCCC1)N[C@H]1CC[C@H](Nc2ncccn2)CC1)c1ccc(C(F)(F)F)cc1 [Compound 114] | < 10
< 10 | CCOC(=O)NC1CCC(N/C(=N\C(=O)c2ccc(C)cc2)Nc2cc(F)cc(Cl)c2)CC1 (centres unmarked) [Compound 158] | < 10
> 10 | CCOC(=O)NC1CCC(N/C(=N\C(=O)c2ccc(F)c(S(C)(=O)=O)c2)Nc2cc(F)cc(Cl)c2)CC1 (centres unmarked) [Compound 146] | > 10
< 10 | CS(=O)(=O)N[C@H]1CC[C@H](N/C(=N/C(=O)c2ccc(F)c(F)c2)Nc2cc(F)cc(Cl)c2)CC1 [Compound 96] | < 10
< 10 | O=C(/N=C(/NC1CCCCC1)N[C@H]1CC[C@H](Nc2ncccn2)CC1)c1ccc(F)c(F)c1 [Compound 87] | < 10
< 10 | CCOC(=O)N[C@H]1CC[C@H](N/C(=N\C(=O)c2ccc(C(F)(F)F)cc2)NC2CCCC2)CC1 [Compound 110] | > 10
< 10 | CCOC(=O)N[C@H]1CC[C@H](N/C(=N\C(=O)c2ccc(F)c(F)c2)NCc2ccc(Cl)cc2)CC1 [Compound 49] | < 10
> 10 | CC(C)(C)OC(=O)NC1CCC(NC(=NC(=O)c2ccc(Cl)cc2)NC2CCC(NC(=O)OC(C)(C)C)CC2)CC1 (centres unmarked) [Compound 162] | > 10
< 10 | O=C(/N=C(/Nc1cccc(C(F)(F)F)c1)N[C@H]1CC[C@H](O)CC1)c1ccc(Cl)cc1 [Compound 29] | < 10
< 10 | CCOC(=O)N[C@H]1CC[C@H](N/C(=N\C(=O)c2ccc(C(F)(F)F)cc2)NC(C)(C)C)CC1 [Compound 111] | > 10
< 10 | CCOC(=O)NC1CCC(N/C(=N\C(=O)c2ccccc2)Nc2cc(F)cc(Cl)c2)CC1 (centres unmarked) [Compound 149] | < 10
< 10 | CN(C)C(=O)N[C@H]1CC[C@H](N/C(=N\C(=O)c2ccc(F)c(F)c2)Nc2cc(F)cc(Cl)c2)CC1 [Compound 135] | < 10
< 10 | O=C1CCC(N/C(=N\C(=O)c2ccc(C(F)(F)F)cc2)Nc2cc(F)cc(Cl)c2)CC1 [Compound 172] | < 10
< 10 | O=C(/N=C(/Nc1cc(F)cc(Cl)c1)NC1CCC(NC(=O)c2cscn2)CC1)c1ccc(F)c(F)c1 (centres unmarked) [Compound 170] | < 10
< 10 | CC(=O)N[C@H]1CC[C@H](N/C(=N\C(=O)c2ccc(F)c(F)c2)Nc2cc(F)cc(Cl)c2)CC1 [Compound 100] | < 10
< 10 | Cc1cc(C(=O)N[C@H]2CC[C@H](N/C(=N\C(=O)c3ccc(F)c(F)c3)Nc3cccc(Cl)c3)CC2)ccn1 [Compound 132] | < 10
< 10 | O=C(/N=C(/Nc1cc(F)cc(Cl)c1)N[C@H]1CC[C@H](Nc2ncccn2)CC1)c1ccc(Cl)cc1 [Compound 118] | < 10
< 10 | O=C(/N=C(/Nc1cc(F)cc(Cl)c1)N[C@H]1CC[C@H](NC(=O)C2CC2)CC1)c1ccc(F)c(F)c1 [Compound 101] | < 10

IC50 [1] [µM] | SMILES | EC50 [2] [µM]
> 10 | O=C(/N=C(/NCc1ccc(Cl)cc1)N[C@H]1CC[C@H](O)CC1)c1ccc(F)c(F)c1 [Compound 31] | > 10
< 10 | COC(=O)NC1CCC(N/C(=N\C(=O)c2ccc(Cl)cc2)Nc2cc(F)cc(Cl)c2)CC1 (centres unmarked) [Compound 166] | < 10
< 10 | CCOC(=O)N[C@H]1CC[C@H](N/C(=N/C(=O)c2ccc(F)c(F)c2)Nc2cccc(C(F)(F)F)c2)CC1 [Compound 14] | < 10
< 10 | CCOC(=O)N[C@H]1CCC[C@@H](N/C(=N\C(=O)c2ccc(F)c(F)c2)Nc2cc(F)cc(Cl)c2)C1 [Compound 125] | < 10
> 10 | O=C(/N=C(/Nc1ccccc1C1CC1)N[C@H]1CC[C@H](O)CC1)c1ccc(F)c(F)c1 [Compound 23] | > 10
< 10 | CC1(N/C(=N/C(=O)c2ccc(C(F)(F)F)cc2)N[C@H]2CC[C@H](Nc3ncccn3)CC2)CCCC1 [Compound 121] | < 10
< 10 | O=C(/N=C(/NCc1ccc(Cl)cc1)N[C@H]1CC[C@H](Nc2ncccn2)CC1)c1ccc(F)c(F)c1 [Compound 91] | < 10
> 10 | O=C(/N=C(/NCc1ccc(F)cc1)N[C@H]1CC[C@H](O)CC1)c1ccc(F)c(F)c1 [Compound 37] | > 10
< 10 | O=C(/N=C(/Nc1cc(F)cc(Cl)c1)N[C@H]1CC[C@H](NC(=O)c2cccs2)CC1)c1ccc(F)c(F)c1 [Compound 139] | < 10
< 10 | CCOC(=O)N[C@H]1CC[C@H](N/C(=N\C(=O)c2ccc(F)c(F)c2)Nc2ccc(F)c(Cl)c2)CC1 [Compound 81] | < 10
< 10 | COC(=O)N[C@H]1CC[C@H](N/C(=N/C(=O)c2ccc(F)c(F)c2)Nc2cccc(C(F)(F)F)c2)CC1 [Compound 15] | < 10
< 10 | O=C(/N=C(/Nc1cccc(Cl)c1)N[C@H]1CC[C@H](O)CC1)c1ccc(C(F)(F)F)cc1 [Compound 8] | < 10
> 10 | CCOC(=O)N[C@H]1CC[C@H](N/C(=N\C(=O)c2ccc(F)c(F)c2)NCC(F)(F)F)CC1 [Compound 107] | > 10
< 10 | CCOC(=O)NC1CCC(N/C(=N\C(=O)c2ccc(C)c(F)c2)Nc2cc(F)cc(Cl)c2)CC1 (centres unmarked) [Compound 160] | < 10
< 10 | O=C(/N=C(/Nc1cc(F)cc(Cl)c1)N[C@H]1CCCC[C@H]1O)c1ccc(C(F)(F)F)cc1 [Compound 123] | < 10
< 10 | O=C(/N=C(/Nc1ccc(Cl)c(F)c1)N[C@H]1CC[C@H](O)CC1)c1ccc(C(F)(F)F)cc1 [Compound 68] | < 10
< 10 | O=C(/N=C(/NC1CCCC1)N[C@H]1CC[C@H](Nc2ncccn2)CC1)c1ccc(Cl)c(F)c1 [Compound 143] | < 10
> 10 | CCOC(=O)NC1CCC(N/C(=N\C(=O)c2ccc(F)c(S(C)(=O)=O)c2)NCc2ccc(F)cc2Cl)CC1 (centres unmarked) [Compound 145] | > 10
> 10 | CCOC(=O)N[C@H]1CC[C@H](N/C(=N\C(=O)c2ccc(F)c(F)c2)NC2CC2)CC1 [Compound 104] | > 10
< 10 | CCNC(=O)[C@H]1CC[C@@H](N/C(=N\C(=O)c2ccc(F)c(F)c2)Nc2cc(F)cc(Cl)c2)CC1 [Compound 89] | < 10
< 10 | Cc1ccc(C(=O)/N=C(/Nc2cc(F)cc(Cl)c2)NC2CCC(NC(=O)c3ccccc3)CC2)cc1 (centres unmarked) [Compound 148] | < 10
